Assay results as given in patent US20170037028A1 (BAYER PHARMA AKTIENGESELLSCHAFT, priority 2013, published 2017).

Each molecule was assayed against T1, GLUT1 (Homo sapiens, UniProt P11166) (assay: Indirect measurement of GLUT1 activity by quantification of intracellular ATP levels (glucose induced ATP increase)). Conditions: read-out: IC50 regarding glucose induced ATP increase (GLUT1 inhibition).
T1 sequence (P11166 1-492): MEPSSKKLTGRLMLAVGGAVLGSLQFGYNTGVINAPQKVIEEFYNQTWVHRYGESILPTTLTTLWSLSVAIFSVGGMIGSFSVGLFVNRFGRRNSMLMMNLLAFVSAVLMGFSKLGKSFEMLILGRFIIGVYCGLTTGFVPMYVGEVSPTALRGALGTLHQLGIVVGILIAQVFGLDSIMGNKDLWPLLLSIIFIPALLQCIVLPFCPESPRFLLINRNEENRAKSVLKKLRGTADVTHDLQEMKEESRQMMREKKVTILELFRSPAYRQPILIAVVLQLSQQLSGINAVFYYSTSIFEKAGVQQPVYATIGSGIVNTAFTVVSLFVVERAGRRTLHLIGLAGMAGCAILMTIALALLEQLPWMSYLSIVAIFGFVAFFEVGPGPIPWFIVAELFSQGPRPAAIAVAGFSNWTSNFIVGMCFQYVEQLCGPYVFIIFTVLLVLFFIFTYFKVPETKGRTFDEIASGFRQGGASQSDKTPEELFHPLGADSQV
Format: cell-based
Parameters: endogenous in cells; host or cells: DLD1 or CHO-K1
How it was run: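 Intracellular ATP was measured by CellTiter-Glo luminescence as an indirect readout of transport: glucose-driven for GLUT1, fructose-driven for GLUT2. DLD1 or CHO-K1 cells were used alongside an oxidative phosphorylation inhibitor. Beforehand, cells were held overnight in glucose-free 1% FCS medium to deplete ATP.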
In the case of `COc1ccc2nc(C3CC3)cc(C(=O)Nc3c(C)nn(Cc4ccc(F)cc4)c3C)c2c1` [Example 233, 2-cyclopropyl-N-[1-(4-fluorobenzyl)-3,5-dimethyl-1H-pyrazol-4-yl]-6-methoxyquinoline-4-carboxamide], the IC50 is reported as 7.2 nM. `Cc1nn(Cc2ccc(F)cc2)c(C)c1NC(=O)c1cc(O)nc2ccccc12` [Example 1260] was tested, and the IC50 was 2170 nM. In the case of `CCc1nn(Cc2ccc(F)cc2)c(CC)c1NC(=O)c1cc(C(N)=O)nc2cc(F)c(Cl)cc12` [Example 1386], the IC50 is reported as 13.6 nM. `Cc1nn(Cc2ccc(F)cc2)c(C)c1NC(=O)c1cc(C(F)(F)F)nc2ccc(OC(F)(F)F)cc12` [Example 63, N-[1-(4-fluorobenzyl)-3,5-dimethyl-1H-pyrazol-4-yl]-6-(trifluoromethoxy)-2-(trifluoromethyl)quinoline-4-carboxamide] was tested, and the IC50 was 129 nM. `CNC(=O)N1CCC(Cn2nc(C)c(NC(=O)c3cc(C(N)=O)nc4ccccc34)c2C)CC1` [Example 1247] gave an IC50 of 1670 nM. For `Cc1cccc(Cn2nc(C(F)(F)F)c(NC(=O)c3cc(C(N)=O)nc4ccc(Br)cc34)c2C)c1` [Example 1482], the IC50 was 5.3 nM. `CCc1cc(C(=O)Nc2c(C)nn(Cc3ccc(F)cc3)c2C)c2ccccc2n1` [Example 69, 2-ethyl-N-[1-(4-fluorobenzyl)-3,5-dimethyl-1H-pyrazol-4-yl]quinoline-4-carboxamide] showed an IC50 of 164 nM. `Cc1ccc2c(C(=O)Nc3c(C(F)(F)F)nn(Cc4ccc(C#N)cc4)c3C)cc(C(N)=O)nc2c1` [Example 1610] showed an IC50 of 8.4 nM. In the case of `COc1ccc(Cn2nc(C(F)(F)F)c(NC(=O)c3cc(C(N)=O)nc4ccccc34)c2C)cc1` [Example 277, N^4-[1-(4-methoxybenzyl)-5-methyl-3-(trifluoromethyl)-1H-pyrazol-4-yl]quinoline-2,4-dicarboxamide], the IC50 is reported as 1.8 nM. `Cc1nn(Cc2ccc(F)cc2)c(C)c1NC(=O)c1cc(C(F)(F)F)nc2ccc(Cl)c(Cl)c12` [Example 22, 5,6-dichloro-N-[1-(4-fluorobenzyl)-3,5-dimethyl-1H-pyrazol-4-yl]-2-(trifluoromethyl)quinoline-4-carboxamide] gave an IC50 of 15.4 nM. Work on `Cc1nn(Cc2c(F)cccc2F)c(C)c1NC(=O)c1cc(C(N)=O)nc2ccccc12` [Example 1632] yielded an IC50 of 10 nM. `Cc1nn(Cc2noc(C(=O)N(C)C)n2)c(C)c1NC(=O)c1cc(C(F)(F)F)nc2ccc(Br)cc12` [Example 1522] gave an IC50 of 600 nM. `Cc1nn(Cc2ccc(C#N)cc2)c(C)c1NC(=O)c1cc(C(F)(F)F)nc2cc(F)c(F)cc12` [Example 169, N-[1-(4-cyanobenzyl)-3,5-dimethyl-1H-pyrazol-4-yl]-6,7-difluoro-2-(trifluoromethyl)quinoline-4-carboxamide] showed an IC50 of 50.5 nM. `Cc1nn(Cc2ccccc2OC(F)(F)F)c(C)c1NC(=O)c1cc(C(F)(F)F)nc2ccc(Br)cc12` [Example 83, 6-bromo-N-{3,5-dimethyl-1-[2-(trifluoromethoxy)benzyl]-1H-pyrazol-4-yl}-2-(trifluoromethyl)quinoline-4-carboxamide] was tested, and the IC50 was 250 nM. In the case of `Cc1c(NC(=O)c2cc(C(N)=O)nc3ccccc23)c(C(F)(F)F)nn1Cc1c(F)cc(C#N)cc1F` [Example 396, N^4-[1-(4-cyano-2,6-difluorobenzyl)-5-methyl-3-(trifluoromethyl)-1H-pyrazol-4-yl]quinoline-2,4-dicarboxamide], the IC50 is reported as 15.9 nM. With `Cc1c(NC(=O)c2cc(C(F)(F)F)nc3ccc(Br)cc23)c(C(F)(F)F)nn1Cc1ccc(S(C)(=O)=O)cc1` [Example 1430] the IC50 was 66.3 nM. Molecule `Cc1nn(Cc2ccc(F)cc2C#N)c(C)c1NC(=O)c1cc(C(N)=O)nc2cc(F)c(Cl)cc12` [Example 1663] has an IC50 of 1.1 nM. Work on `CCOC(=O)c1cc(Cn2nc(C(F)(F)F)c(NC(=O)c3cc(C(N)=O)nc4cc(F)c(Cl)cc34)c2C)on1` [Example 1683] yielded an IC50 of 109 nM. With `Cc1c(NC(=O)c2cc(C(N)=O)nc3cc(F)c(F)cc23)c(C(F)(F)F)nn1Cc1ccc(C#N)cn1` [Example 364, N^4-{1-[(5-cyanopyridin-2-yl)methyl]-5-methyl-3-(trifluoromethyl)-1H-pyrazol-4-yl}-6,7-difluoroquinoline-2,4-dicarboxamide] the IC50 was 6.6 nM. With `Cc1nn(Cc2ccc(F)cc2)c(C)c1NC(=O)c1cc(C(F)(F)F)nc2cc(Cl)c(Cl)cc12` [Example 106, 6,7-dichloro-N-[1-(4-fluorobenzyl)-3,5-dimethyl-1H-pyrazol-4-yl]-2-(trifluoromethyl)quinoline-4-carboxamide] the IC50 was 571 nM. `Cc1nn(Cc2ccc(C(=O)N[C@H]3CC[C@H](O)CC3)cc2)c(C)c1NC(=O)c1cc(C(F)(F)F)nc2ccc(Br)cc12` [Example 1053] showed an IC50 of 13.7 nM. With `Cc1nn(C[C@@H]2CCC(=O)N2)c(C)c1NC(=O)c1cc(C(F)(F)F)nc2ccc(Br)cc12` [Example 1266] the IC50 was 2490 nM. With `Cc1nn(Cc2ccc(C#N)cc2)c(C)c1NC(=O)c1cc(C(N)=O)nc2ccc(Cl)cc12` [Example 261, 6-chloro-N^4-[1-(4-cyanobenzyl)-3,5-dimethyl-1H-pyrazol-4-yl]quinoline-2,4-dicarboxamide] the IC50 was 0.5 nM. `Cc1ccc2c(C(=O)Nc3c(C)nn(Cc4ccc(F)cc4)c3C)cc(C)nc2c1` [Example 1278] showed an IC50 of 3910 nM. For `Cc1c(NC(=O)c2cc(C(N)=O)nc3cc(F)c(Cl)cc23)c(C(F)(F)F)nn1Cc1cc(CN2CCOCC2)on1` [Example 1676], the IC50 was 81.8 nM. For `Cc1nn(CC2CCN(S(C)(=O)=O)CC2)c(C)c1NC(=O)c1cc(C(N)=O)nc2ccccc12` [Example 1094], the IC50 was 39.3 nM. With `COc1cccc(Cn2nc(C)c(NC(=O)c3cc(C(N)=O)nc4cccc(F)c34)c2C)c1` [Example 1451] the IC50 was 8.5 nM. Molecule `Cc1c(NC(=O)c2cc(C(N)=O)nc3cc(F)c(Cl)cc23)c(C(F)(F)F)nn1Cc1c(F)cccc1F` [Example 1630] has an IC50 of 4 nM. `Cc1nn(Cc2ccc(F)c(F)c2)c(C)c1NC(=O)c1cc(C(F)(F)F)nc2ccc(F)cc12` [Example 174, N-[1-(3,4-difluorobenzyl)-3,5-dimethyl-1H-pyrazol-4-yl]-6-fluoro-2-(trifluoromethyl)quinoline-4-carboxamide] gave an IC50 of 69.6 nM. In the case of `Cc1ccc2nc(C)cc(C(=O)Nc3c(C)nn(Cc4cccc(F)c4)c3C)c2c1` [Example 1236], the IC50 is reported as 1290 nM. `Cc1cc(Br)c2nc(C(F)(F)F)cc(C(=O)Nc3c(C)nn(Cc4ccc(F)cc4)c3C)c2c1` [Example 21, 8-bromo-N-[1-(4-fluorobenzyl)-3,5-dimethyl-1H-pyrazol-4-yl]-6-methyl-2-(trifluoromethyl)quinoline-4-carboxamide] showed an IC50 of 14.8 nM. For `Cc1cccc(Cn2nc(C)c(NC(=O)c3cc(C(N)=O)nc4cc(F)c(Cl)cc34)c2C)c1` [Example 1476], the IC50 was 2.9 nM. For `Cc1c(NC(=O)c2cc(C(N)=O)nc3ccccc23)c(C(F)(F)F)nn1Cc1ccc(C(C)O)cc1` (racemic) [Example 1615], the IC50 was 59.4 nM. Work on `Cc1nn(Cc2ccc(F)c(F)c2)c(C)c1NC(=O)c1cc(C(F)(F)F)nc2cccc(F)c12` [Example 173, N-[1-(3,4-difluorobenzyl)-3,5-dimethyl-1H-pyrazol-4-yl]-5-fluoro-2-(trifluoromethyl)quinoline-4-carboxamide] yielded an IC50 of 65.2 nM. With `Cc1nn(Cc2ccc(C(=O)NCCCN(C)C)cc2)c(C)c1NC(=O)c1cc(C(F)(F)F)nc2ccc(Br)cc12` [Example 1167] the IC50 was 171 nM. Work on `Cc1nn(Cc2nc(C3CC3)no2)c(C)c1NC(=O)c1cc(C(F)(F)F)nc2ccc(Br)cc12` [Example 1502] yielded an IC50 of 213 nM. `COc1cc(C(=O)Nc2c(C)nn(CC3CNC(=O)O3)c2C)c2ccccc2n1` (stereo not shown) [Example 1525] gave an IC50 of 4810 nM. `COc1cc2c(C(=O)Nc3c(C)nn(Cc4ccc(C#N)cc4)c3C)cc(C(N)=O)nc2cc1F` [Example 254, N^4-[1-(4-cyanobenzyl)-3,5-dimethyl-1H-pyrazol-4-yl]-7-fluoro-6-methoxyquinoline-2,4-dicarboxamide] was tested, and the IC50 was 1.2 nM. Work on `Cc1nn(Cc2ccc(CC(=O)NCc3ccccc3)cc2)c(C)c1NC(=O)c1cc(C(F)(F)F)nc2ccc(Br)cc12` [Example 154, N-(1-{4-[2-(benzylamino)-2-oxoethyl]benzyl}-3,5-dimethyl-1H-pyrazol-4-yl)-6-bromo-2-(trifluoromethyl)quinoline-4-carboxamide] yielded an IC50 of 196 nM. `Cc1nn(Cc2ccc(C(=O)N3CCC3)cc2)c(C)c1NC(=O)c1cc(C(N)=O)nc2cc(F)ccc12` [Example 1419] was tested, and the IC50 was 24.6 nM. Work on `CNC(=O)c1nn(Cc2ccc(F)cc2)c(C)c1NC(=O)c1cc(C(F)(F)F)nc2ccc(Br)cc12` [Example 1126] yielded an IC50 of 80 nM. Work on `Cc1cccc(Cn2nc(C)c(NC(=O)c3cc(C(N)=O)nc4cc(F)ccc34)c2C)c1` [Example 1474] yielded an IC50 of 2.1 nM. With `COc1ccccc1Cn1nc(C(F)(F)F)c(NC(=O)c2cc(C(N)=O)nc3cc(F)ccc23)c1C` [Example 1588] the IC50 was 175 nM. In the case of `Cc1nn(Cc2ccncn2)c(C)c1NC(=O)c1cc(C(F)(F)F)nc2ccc(Br)cc12` [Example 1416], the IC50 is reported as 97 nM. In the case of `Cc1nn(Cc2ccc(C#N)cc2F)c(C)c1NC(=O)c1cc(C(F)(F)F)nc2ccc(Br)cc12` [Example 1349], the IC50 is reported as 7.5 nM. In the case of `Cc1nn(Cc2ccccc2C#N)c(C)c1NC(=O)c1cc(C(N)=O)nc2cccc(F)c12` [Example 267, N^4-[1-(2-cyanobenzyl)-3,5-dimethyl-1H-pyrazol-4-yl]-5-fluoroquinoline-2,4-dicarboxamide], the IC50 is reported as 2.6 nM.
